{"source": "patent US20260183709A1", "about": "“GAS PURIFICATION METHOD AND GAS PURIFIER” (priority 2022, published 2026)", "origin": "cited, not measured here", "key": {"[1]": {"test_system": "Vibrio cholerae", "details": "phosphate buffer solution; ozone introduction; acting time 15 seconds"}, "[2]": {"test_system": "mucor", "details": "acting time 30 minutes; killing rate cell shared with penicillium line; no ozone concentration printed"}, "[3]": {"test_system": "penicillium", "details": "in the air; acting time 30 minutes; no ozone concentration printed"}, "[4]": {"test_system": "penicillium nigricans", "details": "ozone concentration 12.5 ppm; acting time 35 minutes; killing rate cell shared with r37"}, "[5]": {"test_system": "human immunodeficiency virus (HIV)", "details": "in serum; ozone concentration 4 ppm"}, "[6]": {"test_system": "F's dysentery bacillus", "details": "phosphate buffer solution; ozone introduction; acting time 15 seconds"}, "[7]": {"test_system": "staphylococcus aureus", "details": "in the air; ozone concentration 9 ppm; acting time 60 minutes"}, "[8]": {"test_system": "human rotavirus", "details": "ozone concentration 0.25 ppm"}, "[9]": {"test_system": "HBsAg", "details": "in the air; ozone concentration 0.3 ppm; acting time 30 minutes"}, "[10]": {"test_system": "escherichia coli", "details": "10° C.; ozone concentration 0.3 ppm; acting time 1 minute"}, "[11]": {"test_system": "simian rotavirus", "details": "ozone concentration 0.25 ppm"}, "[12]": {"test_system": "fusarium oxysporum", "details": "ozone concentration 15.5 ppm; acting time 20 minutes; killing rate cell shared with r37"}, "[13]": {"test_system": "escherichia coli", "details": "in the 25° C. air; ozone concentration 0.05 ppm; acting time 30 minutes"}, "[14]": {"test_system": "bacillus subtilis variant", "details": "in water; ozone concentration 4.6 mg/L; acting time 3 minutes"}, "[15]": {"test_system": "poliovirus", "details": "in water; ozone concentration 0.13 ppm; acting time 3 minutes"}, "[16]": {"test_system": "HAsAg", "details": "in water; ozone concentration 13.6 ppm; acting time 30 minutes (cells shared with line above)"}, "[17]": {"test_system": "pseudomonas aeruginosa", "details": "ozone concentration 0.08-0.6 ppm; acting time 30 minutes"}, "[18]": {"test_system": "aspergillus niger", "details": "ozone concentration 1.5 ppm; acting time 1 minute; 'in water' printed on the line above"}, "[19]": {"test_system": "bacteria"}, "[20]": {"test_system": "pseudomonas fluorescens", "details": "phosphate buffer solution; ozone introduction; acting time 15 seconds"}, "[21]": {"test_system": "Influenza A virus", "details": "ozone concentration 0.5 ppm; conditions and time not printed on the line (line above: in the air, 30 minutes)"}, "[22]": {"test_system": "cladosporium herbarum", "details": "ozone concentration 23 ppm; acting time 30 minutes; killing rate cell shared with r37"}, "[23]": {"test_system": "staphylococcus albus", "details": "ozone concentration 10 ppm; acting time 3 minutes"}, "[24]": {"test_system": "Salmonella typhimurium", "details": "phosphate buffer solution; ozone introduction; acting time 15 seconds"}, "[25]": {"test_system": "aspergillus versicolor", "details": "in the air; ozone concentration 9.6 ppm; acting time 100 minutes"}, "[26]": {"test_system": "penicillium citrinum", "details": "ozone concentration 15.4 ppm; acting time 30 minutes; killing rate cell shared with r37"}, "[27]": {"test_system": "common bacteria such as Escherichia coli, streptococcus, Pseudomonas aeruginosa, Staphylococcus aureus, and toxic bacteria", "details": "in 15 minutes in the ozone environment"}, "[28]": {"test_system": "bacillus subtilis variant", "details": "in the air; ozone concentration 2.5 mg/L; acting time 1 minute"}, "[29]": {"test_system": "escherichia coli phage", "details": "ozone concentration 0.09-0.8 ppm; acting time 3 minutes"}}, "note": "Read-outs that look alike come from different tables or passages of the source."}
{"smiles": "O=[O+][O-]", "note": "[Ozone, ozone]", "values": [{"measurement": "Killing rate", "setting": "[1]", "value": 100, "unit": "%"}, {"measurement": "Killing rate", "setting": "[2]", "value": 93.8, "unit": "%"}, {"measurement": "Killing rate", "setting": "[3]", "value": 93.8, "unit": "%"}, {"measurement": "Killing rate", "setting": "[4]", "value": 100, "unit": "%"}, {"measurement": "Killing rate (drop by log values in titer)", "setting": "[5]", "value": "drop by 6 log values in titer"}, {"measurement": "Killing rate", "setting": "[6]", "value": 100, "unit": "%"}, {"measurement": "Killing rate", "setting": "[7]", "value": 99.97, "unit": "%"}, {"measurement": "Killing rate", "setting": "[8]", "value": 100, "unit": "%"}, {"measurement": "Killing rate", "setting": "[9]", "value": 75, "unit": "%"}, {"measurement": "Killing rate", "setting": "[10]", "value": 100, "unit": "%"}, {"measurement": "Killing rate", "setting": "[11]", "value": 100, "unit": "%"}, {"measurement": "Killing rate", "setting": "[12]", "value": 100, "unit": "%"}, {"measurement": "Killing rate", "setting": "[13]", "value": 100, "unit": "%"}, {"measurement": "Killing rate", "setting": "[14]", "value": 100, "unit": "%"}, {"measurement": "Killing rate", "setting": "[15]", "value": 100, "unit": "%"}, {"measurement": "Killing rate", "setting": "[16]", "value": 100, "unit": "%"}, {"measurement": "Killing rate", "setting": "[17]", "value": 99.9, "unit": "%"}, {"measurement": "Killing rate", "setting": "[18]", "value": 100, "unit": "%"}, {"measurement": "sterilization rate faster than chlorine", "setting": "[19]; compared with chlorine", "value": "600-3000 times"}, {"measurement": "bactericidal ability higher than the ultraviolet rays", "setting": "[19]; compared with ultraviolet rays", "value": 20, "unit": "%"}, {"measurement": "sterilization rate faster in the water than chlorine", "setting": "[19]; in the water, compared with chlorine", "value": 600, "unit": "times"}, {"measurement": "Killing rate", "setting": "[20]", "value": 100, "unit": "%"}, {"measurement": "Killing rate", "setting": "[21]", "value": 100, "unit": "%"}, {"measurement": "Killing rate", "setting": "[22]", "value": 100, "unit": "%"}, {"measurement": "Killing rate", "setting": "[23]", "value": 99.99, "unit": "%"}, {"measurement": "Killing rate", "setting": "[24]", "value": 100, "unit": "%"}, {"measurement": "Killing rate", "setting": "[25]", "value": 100, "unit": "%"}, {"measurement": "Killing rate", "setting": "[26]", "value": 100, "unit": "%"}, {"measurement": "sterilization rate", "setting": "[27]", "value": "above 99%"}, {"measurement": "Killing rate", "setting": "[28]", "value": 100, "unit": "%"}, {"measurement": "Killing rate (drop by log values)", "setting": "[29]", "value": "drop by 7 log log values"}]}
